IC50 data for three compounds are collected here from patent US6211242A, “Benzamide derivatives as vasopressin antagonists” (Fujisawa Pharmaceutical Co., Ltd., priority 1994, dated 2001).

One assay deals with T1, human V2 receptor (Homo sapiens, UniProt P30518).
T1 construct: expressed in transfected cells
Kind of assay: Vasopressin 2 (V2) receptor binding (competition with 3H-vasopressin, CHO cells expressing human V2 receptor). Conditions: 0.5 nM 3H-vasopressin, CHO cell membranes, 2 hours at 22° C., pH 7.4. The protocol:
Vasopressin 2 (V2) receptor binding
For binding assays, the receptor cDNA was permanently expressed in Chinese hamster ovary (CHO) cells. CHO cells were transfected with a vector directing expression of the cDNA for the human V2 receptor and the clonal cell lines expressing human V2 receptor was established essentially as described previously (Nakajima, Y., et. al. J. Biol. Chem., 1992, 267, 2437).
DNA-transfected cells were harvested and homogenized in ice cold 250 mM sucrose buffer containing 25 mM Tris-HCl (pH 7.4), 10 mM MgCl2, 1 mM EDTA and 5 μg/ml p-amidinophenylmethylsulfonyl fluoride (A-PMSF). The homogenate was centrifuged at 500×g for 10 minutes. The supernatant was centrifuged at 100,000×g for 1 hour. The final pellet was suspended in 25 mM Tris-HCl (pH 7.4) buffer (containing 10 mM […], 1 mM EDTA and 5 μg/ml A-PMSF), and stored in small aliquots at -80° C.
Competition assays were conducted at equilibrium (2 hours at 22° C.) by using 0.5 nM ^3 H-vasopressin (40-87 Ci/mmol, New England Nuclear) in 100 mM Tris-HCl (pH 7.4) buffer (containing 5 mM MgCl2, 5 μg/ml A-PMSF, 4 μg/ml leupeptin, 40 μg/ml bacitracin, 20 μg/ml chymostatin and 0.1% bovine serum albumin). Nonspecific binding was determined by using 1 μM vasopressin. After incubation, reaction mixture was rapidly filtered through Whatman glass filter (GF/C). […] The radioactivity was counted in a liquid scintilation counter. […]

Assay [1] addresses T2, Vasopressin 1 (V1) receptor (Homo sapiens, UniProt P37288).
T2 construct: Platelet-rich plasma (PRP) was prepared by centrifugation of whole blood; from tissue; host or cells: platelet membranes from blood of normal subjects
Kind of assay: Vasopressin 1 (V1) receptor binding (competition with 3H-vasopressin, platelet membrane preparation). Conditions: 1.5 nM 3H-vasopressin, platelet membranes, 15 minutes at 30° C., pH 7.4. The protocol:
Vasopressin 1 (V1) receptor binding
Blood was obtained by venipuncture from normal subjects. Platelet-rich plasma (PRP) was prepared by centrifugation of whole blood at 200×g for 10 minutes. PRP was centrifuged at 45,000×g for 30 minutes. The remaining pellet was resuspended in 10 volume of ice cold 100 mM Tris-HCl (pH 7.4) buffer (containing 5 mM MgCl2, 0.1% bovine serum albumin and 1 mM EGTA), and centrifuged at 45,000×g for 30 minutes again. The final pellet was resuspended in 100 mM Tris-HCl buffer. The resulting membrane preparation was used immediately for the binding assay.
Competition assays were conducted at equilibrium (15 minutes at 30° C.) by using 1.5 nM ^3 H-vasopressin (40-87 Ci/mmol; New England Nuclear) in 100 mM Tris-HCl (pH 7.4) buffer. Nonspecific binding was determined by using 1 μM vasopressin. After incubation, reaction was terminated by adding 5 ml of ice-cold 100 mM Tris-HCl (pH 7.4) buffer, and then filtered rapidly through Whatman glass filter (GF/C). The filter was washed twice with the same buffer. The glass filter was mixed with liquid scintilation cocktail, and radioactivity was counted in a liquid scintilation counter. Competition activity of the test compound was represented by IC50 values.

T1 sequence (P30518 whole entry): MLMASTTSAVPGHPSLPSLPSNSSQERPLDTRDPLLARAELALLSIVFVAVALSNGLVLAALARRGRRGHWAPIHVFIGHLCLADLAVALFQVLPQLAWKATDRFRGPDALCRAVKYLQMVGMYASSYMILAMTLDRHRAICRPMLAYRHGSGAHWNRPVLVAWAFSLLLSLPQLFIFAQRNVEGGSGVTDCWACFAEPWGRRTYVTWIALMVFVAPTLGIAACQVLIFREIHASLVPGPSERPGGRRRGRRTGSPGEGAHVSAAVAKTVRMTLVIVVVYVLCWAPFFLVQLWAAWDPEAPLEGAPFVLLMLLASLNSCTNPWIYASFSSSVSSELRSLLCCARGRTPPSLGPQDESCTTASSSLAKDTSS
T2 sequence (P37288 whole entry): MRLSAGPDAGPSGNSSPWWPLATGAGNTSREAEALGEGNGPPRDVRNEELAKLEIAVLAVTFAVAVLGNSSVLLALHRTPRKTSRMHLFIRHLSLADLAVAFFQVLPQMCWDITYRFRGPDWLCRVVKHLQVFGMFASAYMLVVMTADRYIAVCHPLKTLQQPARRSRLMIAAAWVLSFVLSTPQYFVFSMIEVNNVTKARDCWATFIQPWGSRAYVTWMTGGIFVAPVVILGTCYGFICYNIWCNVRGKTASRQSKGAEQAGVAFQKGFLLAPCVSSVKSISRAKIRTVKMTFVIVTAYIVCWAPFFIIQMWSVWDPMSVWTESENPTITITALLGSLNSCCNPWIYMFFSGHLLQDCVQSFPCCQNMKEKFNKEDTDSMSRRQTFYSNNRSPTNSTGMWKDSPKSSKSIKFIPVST

As to `Cc1ccc(-c2ccccc2C(=O)Nc2ccc(C(=O)N(C)c3ccccc3OCCN(C)CCC(=O)N3CCN(C)CC3)cc2)cc1` [71-1)], the IC50 (commonly the concentration that gives 50% inhibition) at human V2 receptor was 4.4 nM.

As for `Cc1ccc(N(C)C(=O)c2ccc(NC(=O)c3ccccc3C)cc2)c(OCCCCCC(=O)N2CCN(C)CC2)c1` [27-58), 4-(Methylphenyl-2-carboxamido)-N-methyl-N-[4-methyl-2-[5-(4-methylpiperazin-1-yl)carbonylpent-1-yloxy]phenyl]benzamide], the IC50 in assay [1] turned out to be 4.4 nM.

Regarding `Cc1ccc(-c2ccccc2C(=O)Nc2ccc(C(=O)N(C)c3ccccc3OCc3ccc(C(=O)N4CCN(C)CC4)cc3)cc2)cc1` [27-36)], the IC50 at human V2 receptor is 3 nM.
